{"source": "patent US20230266307A1", "about": "“BIOINFORMATICS” (University of Helsinki, priority 2020, published 2023)", "key": {"JY cells": {"tested_on": "JY cells", "test": "in vitro killing assay, real time cytolysis of JY cells by peptide-pulsed CD8+ T cells", "type": "cell-based, human", "conditions": "for specific cytolysis: CD8+ T cells from HLA-matched PBMCs pulsed with the peptide, coculture with JY cells", "procedure": "Next, in order to determine the role of the peptides identified, a gene ontology (GO) term enrichment analysis was performed on our list of 9mer binder source proteins. We observed an enrichment in nuclear and intracellular proteins, mainly those interacting with DNA, RNA or involved in catabolic activity. […] To account for nonspecific cytotoxicity due to the effector cells per se, unstimulated PBMCs were used as a control. Real time cytolysis was then monitored."}, "B16F10 cells": {"tested_on": "B16F10 cells", "test": "intratumoral PeptiCRAd treatment of established B16F10 tumors", "type": "in vivo, C57BL/6J mice", "procedure": "(§1) A: Scheme of the animal experiment: 4 groups of C57BL mice were formed for each tumor cell line to be tested. Mice were subcutaneously injected either with B16-OVA or B16F10 cells at day 0. Once the tumor was palpable, mice were treated with saline solution (Mock group), uncoated adenovirus (Uncoated Virus group), adenovirus coated with pool of viral peptides homologous to TRP2 (Viral PeptiCRAd, VPC) or adenovirus coated with TRP2 peptide (TRP2 PeptiCRAd, TPC).\n(§2) All PeptiCRAd complexes described in this work were prepared by mixing Adenoviruses and polyK-tailed peptides according to the following protocol: 1×10^9 vp(viral particles) were mixed with 20 ug poly-K tailed peptides (resuspended in water); after vortexing, the mixture was incubated at room temperature for 15 min; PBS was added, after the incubation, up to the injection volume (50 uL/mouse), successively, the solution was vortexed again and used for assays or animal injections. For the TRP2-PeptiCRAd, 1×10^9 vp were mixed with 20ug of 6K-TRP2180-188 peptide, while the Viral-PeptiCRAd was prepared using 1×10^9 vp mixed with 5 ug of each viral 6K-peptide homologous for […]. […]\n(§3) Tumor growth was followed with a digital caliper measuring two dimensions of the tumor. Successively, the volume was mathematically calculated according to the following formula: […]"}, "B16-OVA cells": {"tested_on": "B16-OVA cells", "test": "intratumoral PeptiCRAd treatment of established B16-OVA tumors", "type": "in vivo, C57BL/6J mice", "conditions": "B16OVA", "procedure": "as §1, §2, §3"}, "ccRCC PDO": {"tested_on": "ccRCC PDO", "test": "killing assay with peptide-pulsed CD8+ T cells on ccRCC patient-derived organoids", "type": "cell-based, human", "from_the_text": "We focused our analysis on ccRCC samples. We used transcriptomics levels to select putative tumour antigens using PBMC and healthy kidney tissue as reference sets. Next, PBMCs from healthy volunteers were pulsed with the selected peptides, and CD8+ T cells isolated from those cells were used in the assay.\nFinally, we sought to investigate the recall T cells response in the ccRCC patient. To this end, unfractionated PBMCs derived from the patient were in vitro stimulated with the peptide EVAQPGPSNR whereas unstimulated PBMCs were adopted as control. The derived CD8+T cells were then added to the ccRCC PDO showing about a 7% increase in killing activity compared to the control group."}, "[1]": {"target": "HLA-I complexes of the human B-cell lymphoblastoid cell line JY (human)", "test": "cell-based or functional assay"}}, "note": "No end group written: not given here."}
{"molecule": "KVLEYVIKV [HLA-I peptide from JY cells, gene name MAGEA1]", "values": [{"measurement": "specific cytolysis", "setting": "JY cells", "result": "about 10%"}]}
{"molecule": "QLVDIIEKV [HLA-I peptide from JY cells, gene name PSME3]", "values": [{"measurement": "specific cytolysis", "setting": "JY cells", "result": "about 10%"}]}
{"molecule": "ILDKKVEKV [HLA-I peptide from JY cells, gene name HSP90AB3P]", "values": [{"measurement": "specific cytolysis", "setting": "JY cells", "result": 15, "unit": "%"}, {"measurement": "specific cytolysis, comparison among the tested peptides", "setting": "JY cells; JY cells, CD8+ T cell-dependent killing", "result": "higher percentage of specific cytolysis"}]}
{"molecule": "TRP2-PeptiCRAd: adenovirus coated with 6K-TRP2180-188 peptide (KKKKKKSVYDFFVWL; also: coated on adenovirus; UniProt P29812 180-188, looked up, fragment)", "values": [{"measurement": "tumor progression", "setting": "B16F10 cells; B16F10, intratumoral, compared to saline buffer or uncoated virus", "result": "significantly reduced the tumor progression"}, {"measurement": "number of responders", "setting": "B16F10 cells; B16F10, tumor volume below the median at endpoint", "result": "significantly higher number of responders"}, {"measurement": "tumor progression", "setting": "B16-OVA cells; intratumoral, compared to saline buffer or uncoated virus", "result": "significantly reduced the tumor progression"}, {"measurement": "number of responders", "setting": "B16-OVA cells; tumor volume below the median at endpoint", "result": "significantly higher number of responders"}]}
{"molecule": "EVAQPGPSNR (HSPG2 gene) [peptide from ccRCC organoids, gene name HSPG2]", "values": [{"measurement": "specific cytolysis", "setting": "ccRCC PDO; CD8+ T cells from PBMCs of healthy volunteers pulsed with the peptide, ccRCC samples", "result": "about 10%"}, {"measurement": "increase in killing activity compared to the control group", "setting": "ccRCC PDO; CD8+ T cells from the ccRCC patient's PBMCs stimulated with the peptide, added to ccRCC PDO, control unstimulated PBMCs", "result": "~7", "unit": "%"}]}
{"molecule": "KVLEYVIKV", "note": "[… (gene name MAGEA1)]", "values": [{"measurement": "specific cytolysis of JY cells by CD8+ T cells pulsed with the peptide", "setting": "[1]", "result": 10, "unit": "%"}]}
{"molecule": "ILDKKVEKV", "note": "[… (gene name HSP90AB3P)]", "values": [{"measurement": "specific cytolysis of JY cells by CD8+ T cells pulsed with the peptide", "setting": "[1]", "result": 15, "unit": "%"}]}
{"molecule": "QLVDIIEKV (not fully specified)", "note": "[… (gene name PSME3)]", "values": [{"measurement": "specific cytolysis of JY cells by CD8+ T cells pulsed with the peptide", "setting": "[1]", "result": 10, "unit": "%"}]}
